Measurements from patent US6310177A, “Compounds and methods for modulating tissue permeability” (Adherex Technologies, Inc., priority 2000, dated 2001).
Where a SMILES comes first, the peptide text is derived from it. Bridges are numbered along the chain shown (N, C = ends).

Legend:
[1] = system: endothelial cell permeability in vivo; test: Miles assay for vascular permeability; conditions: rat, 100 μl subdermal injection of 100 μg/ml peptide in PBS, Evans blue i.v. 15 min later; for dye extracted from excised injection sites (optical density of dimethylformamide extracts at 620 nm): 24 h extraction, FIG. 6 and FIG. 8; for accumulation of Evans blue at the injection sites (visual): read 15 min after dye, FIG. 5
Protocol: The ability of an agent to modulate cell adhesion may generally be evaluated in vivo by assessing the effect on vascular permeability utilizing the Miles assay (McClure et al., J. Pharmacological& Toxicological Methods 32:49-52, 1994). Briefly, a candidate modulating agent may be dissolved in phosphate buffered saline (PBS) at a concentration of 100 μg/ml. Adult rats may be given 100 μl subdermal injections of each peptide solution into their shaved backs, followed 15 minutes later by a single 250 μl injection of 1% Evans blue dissolved in PBS into their tail veins. The subdermal injection sites may be visually monitored for the appearance of blue dye. Once the dye appears (about 15 minutes after injection), each subdermal injection site may be excised, weighed, and placed in 1 ml dimethylformamide for 24 hours to extract the dye. The optical density of the dye extracts may then be determined at 620 nm. In general, the injection of 0.1 ml of modulating agent (at a concentration of 0.1 mg/ml) into the backs of rats causes an increase of dye accumulation at the injection sites of at least 50%, as compared to dye accumulation at sites into which PBS has been injected.
This Example illustrates a vasopermeability assay for evaluating the effects of occludin-modulating agents on endothelial cell permeability in vivo.
The ability of cyclic and linear peptides to increase vascular permeability was assessed utilizing the Miles assay (McClure et al., J. Pharmacological& Toxicological Meth. 32:49-521994). The peptides were dissolved in phosphate buffered saline (PBS) at a concentration of 100 μg/ml. Adult rats were given 100 μl subdermal injections of each peptide solution into their shaved backs, followed 15 minutes later by a single 250 μl injection of 1% Evans blue dissolved in PBS into their tail veins. The subdermal injection sites were visually monitored for the appearance of blue dye. Once the dye appeared (15 minutes after injection), each subdermal injection site was excised, weighed, and placed in 1 ml dimethylformamide for 24 hours to extract the dye. The optical density of the dye extracts was determined at 620 nm. The effects of injecting either phosphate buffered saline, phosphate buffered saline containing acetyl-QYLYHYCVVD-NH2 (SEQ ID NO:2) H-QYLYHYCVVD-NH2 (SEQ ID NO:2), or H-QYLYHYCVVD-OH (SEQ ID NO:2) into sites along the shaved back of a rat on the accumulation of Evans blue at the injection sites is shown in FIG. 5.

[2] = system: Human aortic endothelial cells (HAEC); test: Endothelial cell adhesion assay with occludin and VE-cadherin immunolocalization; assay type: cell-based; conditions: 1 hour
Source text: The effect of a modulating agent on endothelial cell adhesion may generally be evaluated using immunolocalization techniques. Human aortic endothelial cells (HAEC) may be cultured on fibronectin-coated coverslips (fibronectinmay be obtained from Sigma, St. Louis, Mo.) according to the procedures of Jaffe et al., J. Clin. Invest. 52:2745-2756, 1973. Briefly, human endothelial cells may be maintained in EGM (endothelial cell growth medium; Clonetics, San Diego, Calif.) and used for experiments at passage 4. Confluent cultures of HAEC may be exposed to either a candidate modulating agent (final concentration 100 μg/ml EGM), or EGM alone for 1 hour. The cells are then be fixed for 30 minutes at 4° C. in 95% ethanol, followed by fixation in acetone for 1 minute at 4° C. (Furuse et al., J. Cell Biol. 123:1777-1788, 1993). After fixation, the cells may be probed with either mouse anti-VE-cadherin antibodies (Hemeris, Sassenage, France; diluted 1:250 in 0.1% dried skim milk powder dissolved in PBS), or rabbit anti-occludin antibodies (Zymed, South San Francisco, Calif.; diluted 1:300 in 0.1% dried skim milk powder dissolved in PBS) for 1 hour at 37° C. The cells may then be washed with 0.1% dried skim milk powder dissolved in PBS (three washes, 5 minutes/wash), and probed with secondary antibodies (donkey anti-mouse Cy3, or donkey anti-rabbit Cy5 diluted 1:250 in 0.1% dried skim milk powder dissolved in PBS; Jackson Immunoresearch Laboratories Inc., Westgrove, Pa.) for 1 hour at 37° C. The cells may then be washed again with in 0.1% dried skim milk powder dissolved in PBS and mounted in a solution composed of 50% glycerol and 50% PBS to which phenylenediamine (Sigma, St. Louis, Mo.) has been added to a final concentration of 1 mg/ml. The sample may then be analyzed using a Bio-Rad MRC 1000 confocal microscope with Laser Sharp software version 2.1T (Bio-Rad, Hercules, Calif.). In general, 0.1 mg/ml of modulating agent results in the appearance of intercellular gaps within the monolayer cultures and a decrease of at least 50% in the surface expression of occludin and VE-cadherin, as compared to monolayer cultures that were not exposed to the modulating agent.
This Example illustrates an endothelial cell adhesion assay for evaluating the effects of occludin-modulating agents on endothelial cell adhesion.
Human aortic endothelial cells (HAEC) were cultured on fibronectin (Sigma, St. Louis, Mo.) according to the procedures of Jaffe et al., J. Clin. Invest. 52:2745-2756, 1973. Cells were maintained in EGM (endothelial cell growth medium; Clonetics, San Diego, Calif.) and used for experiments at passage 4.
HAEC were cultured on fibronectin-coated coverslips. Confluent cultures of HAEC were exposed to linear peptides (final concentration 100 μg/ml EGM), or EGM alone for 1 hour. […]

[3] = HAEC, 100 μg/ml peptide, immunofluorescence, vs untreated cells

Compound | dye extracted from excised injection sites (optical density of dimethylformamide extracts at 620 nm) [1] | accumulation of Evans blue at the injection sites (visual) [1] | surface expression of VE-cadherin [2, 3] | surface expression of occludin [2, 3] | endothelial cell adhesion (retraction of cells, gaps between cells) ([2]; confluent HAEC monolayers, 100 μg/ml peptide in EGM, vs untreated cells, FIG. 4) | formation of cobblestone-like monolayers ([2]; confluent HAEC, 100 μg/ml peptide, FIG. 4B)
CC(C)C[C@@H]1NC(=O)[C@@H](N)CSSC[C@@H](C(=O)O)NC(=O)[C@H](Cc2ccc(O)cc2)NC(=O)[C@H](Cc2c[nH]cn2)NC(=O)[C@H](Cc2ccc(O)cc2)NC1=O [H-CLYHYC-OH] (H-CLYHYC-OH; disulfide 1-6) | more dye was extracted |  |  |  |  | 
CC(=O)N[C@H]1CSSC[C@@H](C(N)=O)NC(=O)[C@H](Cc2ccc(O)cc2)NC(=O)[C@H](Cc2c[nH]cn2)NC(=O)[C@H](Cc2ccc(O)cc2)NC(=O)[C@H](CC(C)C)NC1=O [acetyl-CLYHYC-NH2] (Ac-CLYHYC-NH2; disulfide 1-6) | more dye was extracted from the sites injected with H-CLYHYC-OH |  |  |  |  | 
Ac-QYLYHYCVVD-NH2 [acetyl-QYLYHYCVVD-NH2] | more dye was extracted from the sites injected with H-QYLYHYCVVD-OH | more blue dye has accumulated at the sites where the peptide H-QYLYHYCVVD-OH |  |  |  | 
H-QYLYHYCVVD-NH2 [H-QYLYHYCVVD-NH2] | more dye was extracted from the sites injected with H-QYLYHYCVVD-OH | more blue dye has accumulated at the sites where the peptide H-QYLYHYCVVD-OH |  |  |  | 
H-QYLYHYCVVD-OH [H-QYLYHYCVVD-OH] | more dye was extracted | more blue dye has accumulated | greatly reduced | greatly reduced | adhesion is decreased between the cells | do not form cobblestone-like monolayers
